Paper PMC11317573 (Proceedings of the National Academy of Sciences of the …, 2024)

Target: T1, RdsA (YhiN) (Escherichia coli, UniProt P37631)
T1 sequence (P37631 1-400): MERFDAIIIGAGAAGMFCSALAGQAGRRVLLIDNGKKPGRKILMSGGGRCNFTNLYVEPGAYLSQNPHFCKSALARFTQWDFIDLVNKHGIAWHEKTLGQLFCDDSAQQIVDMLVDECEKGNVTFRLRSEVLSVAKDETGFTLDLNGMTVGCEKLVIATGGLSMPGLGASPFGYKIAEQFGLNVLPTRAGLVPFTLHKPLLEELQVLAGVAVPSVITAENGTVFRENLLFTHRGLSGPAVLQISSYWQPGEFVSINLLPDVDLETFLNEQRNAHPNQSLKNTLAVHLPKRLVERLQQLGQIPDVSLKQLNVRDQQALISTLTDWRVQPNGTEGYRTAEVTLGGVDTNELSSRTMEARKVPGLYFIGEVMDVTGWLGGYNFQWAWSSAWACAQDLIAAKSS
Assay: UV/visible spectrum of purified protein
Format: binding
Settings: as purified; noncovalent

holoprotein fraction (oxidized flavin): 61%
SMILES: Cc1cc2nc3c(=O)[nH]c(=O)nc-3n(C[C@H](O)[C@H](O)[C@H](O)COP(=O)(O)OP(=O)(O)OC[C@H]3O[C@@H](n4cnc5c(N)ncnc54)[C@H](O)[C@@H]3O)c2cc1C [FAD]
